This is an account of results in patent US6809065B2, “Herbicide containing substituted pyrazole derivative as active ingredient” (SDS Biotech K.K., priority 2001, dated 2004).

SMILES strings stand for the structures.

Data set [1] deals with soybean (Glycine max). Nature of the data set: Upland soil treatment (Test Example 2), crop. Type of data set: in vivo. The note with it: soil surface treatment next day after sowing, 1 kg active ingredient per hectare, evaluated 21st day, lower index = higher safety. Summed up:
(§1)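 Scored 21 days post-application on an index scale where higher values mean greater herbicidal effect on weeds and lower values mean greater crop safety. Treatment was a water-diluted wettable powder sprayed evenly onto the soil surface at 1 kg active ingredient per hectare, one day after seeding.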

The subject of data set [2] is wheat (Triticum aestivum). Nature of the data set: Upland soil treatment (Test Example 2), crop. Type of data set: in vivo. As to conditions: soil surface treatment next day after sowing, 1 kg active ingredient per hectare, evaluated 21st day, lower index = higher safety. An outline of the steps: as §1
In data set [3] the test system is rice (Oryza sative, variety: Koshihikari). Nature of the data set: Paddy field treatment (Test Example 3), crop. As to conditions: transplanted rice two-leaf period, water surface treatment 10th day after transplantation, 1 kg active ingredient per hectare, evaluated 21st day, lower index = higher safety. Type of data set: in vivo, Oryza sativa. Summed up: (§2)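 Index scores for herbicidal effect were read 21 days after treatment, higher meaning stronger effect. Treatment was a water-diluted wettable powder dropped onto flooded paddy soil at 1 kg active ingredient per hectare, 10 days after rice transplantation.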

Data set [4] concerns soybean (Glycine max). Nature of the data set: Upland field foliage treatment (Test Example 1), crop. As to conditions: foliage treatment 14th day after sowing, 1 kg active ingredient per hectare, evaluated 21st day, lower index = higher safety. Type of data set: in vivo. Summed up:
(§3)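 Foliage application took place two weeks after sowing, at an active-ingredient rate of 1 kg/ha from a water-diluted wettable powder. Rating followed on the 21st day after application, using an index scale on which crop values rise as injury increases.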

The subject of data set [5] is wheat (Triticum aestivum). The description is as above. The format is in vivo. As to conditions: foliage treatment 14th day after sowing, 1 kg active ingredient per hectare, evaluated 21st day, lower index = higher safety. Summed up:
as §3

Data set [6] concerns Setaria viridis. The data set is described as follows: Upland soil treatment (Test Example 2). The format is in vivo. As to conditions: soil surface treatment next day after sowing, wettable powder, 1 kg active ingredient per hectare, evaluated 21st day after application. Summed up:
as §1

The subject of data set [7] is Stellaria media. Nature of the data set: Upland soil treatment (Test Example 2). The format is in vivo. The note with it: soil surface treatment next day after sowing, wettable powder, 1 kg active ingredient per hectare, evaluated 21st day after application. An outline of the steps:
as §1

The test system of data set [8] is Digitaria adscendens. Nature of the data set: Upland soil treatment (Test Example 2). The format is in vivo. The note with it: soil surface treatment next day after sowing, wettable powder, 1 kg active ingredient per hectare, evaluated 21st day after application. An outline of the steps:
as §1

Data set [9] concerns Chenopodium album. Nature of the data set: Upland soil treatment (Test Example 2). As to conditions: soil surface treatment next day after sowing, wettable powder, 1 kg active ingredient per hectare, evaluated 21st day after application. The format is in vivo. Summed up: as §1
The subject of data set [10] is Setaria viridis. The data set is described as follows: Upland field foliage treatment (Test Example 1). The format is in vivo. As to conditions: foliage treatment 14th day after sowing, wettable powder, 1 kg active ingredient per hectare, evaluated 21st day after application. An outline of the steps:
as §3

In data set [11] the test system is Stellaria media. Nature of the data set: Upland field foliage treatment (Test Example 1). The format is in vivo. The note with it: foliage treatment 14th day after sowing, wettable powder, 1 kg active ingredient per hectare, evaluated 21st day after application. Summed up: as §3
For data set [12], the system named is Digitaria adscendens. Nature of the data set: Upland field foliage treatment (Test Example 1). The format is in vivo. The note with it: foliage treatment 14th day after sowing, wettable powder, 1 kg active ingredient per hectare, evaluated 21st day after application. Summed up:
as §3

In data set [13] the test system is Chenopodium album. Nature of the data set: Upland field foliage treatment (Test Example 1). The format is in vivo. As to conditions: foliage treatment 14th day after sowing, wettable powder, 1 kg active ingredient per hectare, evaluated 21st day after application. An outline of the steps: as §3
For the next data set, the system named is Scirpus juncoides. Nature of the data set: Paddy field treatment (Test Example 3). The format is in vivo. The note with it: paddy pot, submerged 4 cm, dropped on water surface 10th day after transplantation, 1 kg active ingredient per hectare, evaluated 21st day. Summed up: as §2
The test system of another data set is Ammannia multiflora. The data set is described as follows: Paddy field treatment (Test Example 3). Type of data set: in vivo. As to conditions: paddy pot, submerged 4 cm, dropped on water surface 10th day after transplantation, 1 kg active ingredient per hectare, evaluated 21st day. Summed up: as §2
The subject of the next data set is Monochoria vaginalis. Nature of the data set: Paddy field treatment (Test Example 3). Type of data set: in vivo. As to conditions: paddy pot, submerged 4 cm, dropped on water surface 10th day after transplantation, 1 kg active ingredient per hectare, evaluated 21st day. An outline of the steps: as §2
Another data set deals with Echinochloa spp. Nature of the data set: Paddy field treatment (Test Example 3). Type of data set: in vivo, Echinochloa crusgalli. As to conditions: paddy pot, submerged 4 cm, dropped on water surface 10th day after transplantation, 1 kg active ingredient per hectare, evaluated 21st day. An outline of the steps:
as §2

In the case of `COC=C(Cn1cc(Cl)c(-c2cccc(OC)c2)n1)C(=O)OC` [Compound 16], the “Herbicidal activity Glycine max” value with soybean (Glycine max) [1] was 0 (herbicidal effect of not less than 0% by weight and less than 10% by weight); in the data set on soybean (Glycine max) [4], 1 (herbicidal effect of not less than 10% by weight and less than 30% by weight). The “Herbicidal activity Triticum aestivum” value in data set [2] is 0 (herbicidal effect of not less than 0% by weight and less than 10% by weight); in data set [5] it was 0 (herbicidal effect of not less than 0% by weight and less than 10% by weight). The “Herbicidal activity Oryza sativa” value in data set [3] was 0 (herbicidal effect of not less than 0% by weight and less than 10% by weight). The “Herbicidal activity Setaria viridis” value with Setaria viridis [6] and in the data set with Setaria viridis [10] was 5 (herbicidal effect of not less than 90% by weight) each time. The “Herbicidal activity Stellaria media” value in the data set on Stellaria media [7] and in the data set on Stellaria media [11] was 5 (herbicidal effect of not less than 90% by weight) each time. The “Herbicidal activity Digitaria adscendens” value in the data set with Digitaria adscendens [8] and with Digitaria adscendens [12] was 5 (herbicidal effect of not less than 90% by weight) throughout. For the same compound, the “Herbicidal activity Chenopodium album” value in the data set with Chenopodium album [9] is 4 (herbicidal effect of not less than 70% by weight and less than 90% by weight); in the data set with Chenopodium album [13], 5 (herbicidal effect of not less than 90% by weight). The “Herbicidal activity Scirpus juncoides” value with Scirpus juncoides is 5 (herbicidal effect of not less than 90% by weight). Besides, the “Herbicidal activity Ammannia multiflora” value in the data set on Ammannia multiflora is on record as 5 (herbicidal effect of not less than 90% by weight). Moreover, the “Herbicidal activity Monochoria vaginalis” value in the data set on Monochoria vaginalis is given as 5 (herbicidal effect of not less than 90% by weight). The “Herbicidal activity Echinochloa spp.” value in the data set with Echinochloa spp. is 5 (herbicidal effect of not less than 90% by weight).

With `COC=C(Cn1nc(-c2cccc(C)c2)c(Cl)c1C)C(=O)OC` [Compound 17], the “Herbicidal activity Glycine max” value in the data set with soybean (Glycine max) [1] was 0 (herbicidal effect of not less than 0% by weight and less than 10% by weight); in the data set on soybean (Glycine max) [4], 0 (herbicidal effect of not less than 0% by weight and less than 10% by weight). Moreover, the “Herbicidal activity Triticum aestivum” value was 0 (herbicidal effect of not less than 0% by weight and less than 10% by weight) in data set [2]; 0 (herbicidal effect of not less than 0% by weight and less than 10% by weight) in data set [5]. For the same compound, the “Herbicidal activity Oryza sativa” value in data set [3] is 0 (herbicidal effect of not less than 0% by weight and less than 10% by weight). In addition, the “Herbicidal activity Setaria viridis” value in the data set on Setaria viridis [6] is 4 (herbicidal effect of not less than 70% by weight and less than 90% by weight); in the data set on Setaria viridis [10] it was 5 (herbicidal effect of not less than 90% by weight). Moreover, the “Herbicidal activity Stellaria media” value was 4 (herbicidal effect of not less than 70% by weight and less than 90% by weight) with Stellaria media [7]; 5 (herbicidal effect of not less than 90% by weight) in the data set on Stellaria media [11]. For the same compound, the “Herbicidal activity Digitaria adscendens” value with Digitaria adscendens [8] was 4 (herbicidal effect of not less than 70% by weight and less than 90% by weight); with Digitaria adscendens [12], 4 (herbicidal effect of not less than 70% by weight and less than 90% by weight). Besides, the “Herbicidal activity Chenopodium album” value in the data set with Chenopodium album [9] was 4 (herbicidal effect of not less than 70% by weight and less than 90% by weight); in the data set on Chenopodium album [13], 5 (herbicidal effect of not less than 90% by weight). Also, in the data set with Scirpus juncoides, the “Herbicidal activity Scirpus juncoides” value was 4 (herbicidal effect of not less than 70% by weight and less than 90% by weight). In the data set on Ammannia multiflora, the “Herbicidal activity Ammannia multiflora” value was 5 (herbicidal effect of not less than 90% by weight). Further, the “Herbicidal activity Monochoria vaginalis” value with Monochoria vaginalis is listed as 5 (herbicidal effect of not less than 90% by weight). Also, the “Herbicidal activity Echinochloa spp.” value with Echinochloa spp. is on record as 5 (herbicidal effect of not less than 90% by weight).

As for `COC=C(Cn1nc(-c2ccccc2Cl)c(Cl)c1C)C(=O)OC` [Compound 18], the “Herbicidal activity Glycine max” value in the data set on soybean (Glycine max) [1] was 0 (herbicidal effect of not less than 0% by weight and less than 10% by weight); in the data set with soybean (Glycine max) [4], 0 (herbicidal effect of not less than 0% by weight and less than 10% by weight). In addition, the “Herbicidal activity Triticum aestivum” value is 0 (herbicidal effect of not less than 0% by weight and less than 10% by weight) in data set [2]; 0 (herbicidal effect of not less than 0% by weight and less than 10% by weight) in data set [5]. In [3], the “Herbicidal activity Oryza sativa” value is 1 (herbicidal effect of not less than 10% by weight and less than 30% by weight). The “Herbicidal activity Setaria viridis” value is 4 (herbicidal effect of not less than 70% by weight and less than 90% by weight) in the data set with Setaria viridis [6]; 4 (herbicidal effect of not less than 70% by weight and less than 90% by weight) in the data set with Setaria viridis [10]. In addition, the “Herbicidal activity Stellaria media” value with Stellaria media [7] and in the data set on Stellaria media [11] was 5 (herbicidal effect of not less than 90% by weight) in each case. The “Herbicidal activity Digitaria adscendens” value in the data set on Digitaria adscendens [8] and with Digitaria adscendens [12] was 5 (herbicidal effect of not less than 90% by weight) throughout. The “Herbicidal activity Chenopodium album” value in the data set on Chenopodium album [9] and with Chenopodium album [13] was 5 (herbicidal effect of not less than 90% by weight) in each case. In addition, the “Herbicidal activity Scirpus juncoides” value in the data set with Scirpus juncoides is 5 (herbicidal effect of not less than 90% by weight). In addition, the “Herbicidal activity Ammannia multiflora” value in the data set with Ammannia multiflora is reported as 5 (herbicidal effect of not less than 90% by weight). Besides, the “Herbicidal activity Monochoria vaginalis” value with Monochoria vaginalis is listed as 5 (herbicidal effect of not less than 90% by weight). Further, the “Herbicidal activity Echinochloa spp.” value in the data set on Echinochloa spp. is on record as 5 (herbicidal effect of not less than 90% by weight).
